According to ChEMBL document CHEMBL4616663, “Resorcylic Acid Lactones from an Ilyonectria sp” (J Nat Prod, 2020):
pIC50: −log10 of the molar value. Calls of active or inactive are those of the source. No cut-off for these calls is given here.

Assays:
HCT-116 = test: Cytotoxicity against human HCT116 cells at 50 uM by MTT assay; type: functional, cell-based
769-P = test: Cytotoxicity against human 769-P cells at 50 uM by MTT assay; type: functional, cell-based
A549 [1] = test: Cytotoxicity against human A549 cells at 50 uM by MTT assay; type: functional, cell-based
T-cell = test: Immunosuppressive activity in BALB/c mouse T cells assessed as reduction in ConA-induced cell proliferation; type: functional, cell-based
B-cell line = test: Immunosuppressive activity in BALB/c mouse B cells assessed as reduction in LPS-induced cell proliferation; type: functional, cell-based
A549 [2] = test: Cytotoxicity against TRAIL-resistant human A549 cells assessed as reduction in cell viability at 15 uM cotreated with TRAIL after 24 hrs by MTT assay relative to compound alone; type: functional
A549 [3] = test: Cytotoxicity against TRAIL-resistant human A549 cells assessed as reduction in cell viability at 50 uM cotreated with TRAIL after 24 hrs by MTT assay relative to compound alone; type: functional
A549 [4] = test: Cytotoxicity against TRAIL-resistant human A549 cells assessed as reduction in cell viability at 30 uM cotreated with TRAIL after 24 hrs by MTT assay relative to compound alone; type: functional

Compound	Activity (HCT-116)	Activity (769-P)	Activity (A549 [1])	pIC50 (T-cell)	pIC50 (B-cell line)	Activity (A549 [2])	Activity (A549 [3])	Activity (A549 [4])
CO[C@@H]1C=CC=C2Cc3c(Cl)c(O)cc(O)c3C(=O)O[C@H](C)C[C@@H](O)[C@H]1O2	inactive	inactive	inactive	< 4.60	5.26	–	–	–
C[C@@H]1C/C=C/CC/C=C/[C@@H](O)CC(=O)Cc2c(Cl)c(O)cc(O)c2C(=O)O1	inactive	inactive	inactive	5.39	5.01	22%	29%	31%
C[C@H]1OC(=O)c2c(O)cc(O)c(Cl)c2/C=C/CC/C=C/[C@@H]1O	inactive	inactive	inactive	< 4.60	< 4.60	–	–	–
C[C@@H]1C/C=C/CCCC[C@H](O)CC(=O)Cc2c(Cl)c(O)cc(O)c2C(=O)O1	inactive	inactive	inactive	< 4.60	< 4.60	–	27%	–
C[C@@H]1C[C@@H](O)/C=C\CCCC(=O)Cc2c(Cl)c(O)cc(O)c2C(=O)O1	inactive	inactive	inactive	< 4.60	4.66	–	–	–
C[C@@H]1CC[C@H](O)C(=O)CCCC(=O)Cc2c(Cl)c(O)cc(O)c2C(=O)O1	inactive	inactive	inactive	< 4.60	< 4.60	–	–	–
COc1c(C)c2c(c(O)c1C/C=C(\C)CCC(=O)OCCN1CCOCC1)C(=O)OC2 [MYCOPHENOLATE MOFETIL]	–	–	–	–	5.49	–	–	–
C[C@@H]1C/C=C/C(=O)CCCC(=O)Cc2cc(O)cc(O)c2C(=O)O1	inactive	inactive	inactive	< 4.60	4.73	–	–	–
C[C@@H]1C/C=C/CCCC[C@@H](O)CC(=O)Cc2c(Cl)c(O)cc(O)c2C(=O)O1	inactive	inactive	inactive	< 4.60	< 4.60	–	26%	–
C[C@@H]1C[C@@H](O)[C@@H]2CC[C@H](CC(=O)Cc3cc(O)cc(O)c3C(=O)O1)O2	inactive	inactive	inactive	< 4.60	< 4.60	–	–	–
C[C@H]1OC(=O)c2c(O)cc(O)cc2CC(=O)CCCC/C=C/[C@@H]1O	inactive	inactive	inactive	< 4.60	< 4.60	–	–	–
C[C@@H]1C[C@@H]2O[C@H]2[C@@H]2O[C@@H]2/C=C/[C@@H](O)CC(=O)Cc2c(Cl)c(O)cc(O)c2C(=O)O1	inactive	inactive	inactive	5.72	5.96	–	–	–
C[C@@H]1CC(=O)CCC/C=C/C(=O)Cc2c(Cl)c(O)cc(O)c2C(=O)O1	inactive	inactive	inactive	< 4.60	< 4.60	–	–	–
